From ChEMBL document CHEMBL5291721, “A preclinical secondary pharmacology resource illuminates target-adverse drug reaction associations of marketed drugs” (Nat Commun, 2023)

Legend:
[1] = target: T1, Glucocorticoid receptor (Homo sapiens, UniProt P04150)
T1 sequence (P04150 whole entry): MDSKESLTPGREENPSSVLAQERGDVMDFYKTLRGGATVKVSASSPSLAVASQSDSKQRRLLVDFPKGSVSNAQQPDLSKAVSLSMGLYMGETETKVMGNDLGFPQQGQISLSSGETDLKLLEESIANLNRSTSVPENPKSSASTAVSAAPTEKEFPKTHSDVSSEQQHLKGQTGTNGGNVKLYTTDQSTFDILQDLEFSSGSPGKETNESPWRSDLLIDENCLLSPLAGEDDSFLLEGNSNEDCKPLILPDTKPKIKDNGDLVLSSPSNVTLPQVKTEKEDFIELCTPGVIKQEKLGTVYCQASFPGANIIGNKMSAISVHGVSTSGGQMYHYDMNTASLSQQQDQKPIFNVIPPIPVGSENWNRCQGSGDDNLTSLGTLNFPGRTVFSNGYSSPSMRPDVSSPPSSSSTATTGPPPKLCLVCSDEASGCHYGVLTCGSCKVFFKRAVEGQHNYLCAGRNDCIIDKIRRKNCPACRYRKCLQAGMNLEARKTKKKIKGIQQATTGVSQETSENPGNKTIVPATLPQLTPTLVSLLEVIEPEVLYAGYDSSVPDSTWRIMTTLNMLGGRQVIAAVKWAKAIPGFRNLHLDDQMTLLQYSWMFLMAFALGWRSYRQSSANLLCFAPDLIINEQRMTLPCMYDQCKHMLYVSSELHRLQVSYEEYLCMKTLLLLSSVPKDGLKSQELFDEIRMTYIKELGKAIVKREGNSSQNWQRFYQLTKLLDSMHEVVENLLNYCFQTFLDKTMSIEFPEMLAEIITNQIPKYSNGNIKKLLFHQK

[2] = target: Sodium-dependent noradrenaline transporter (Homo sapiens, UniProt P23975)
[3] = target: T2, Equilibrative nucleoside transporter 1 (Homo sapiens, UniProt Q99808)
T2 sequence (Q99808 whole entry): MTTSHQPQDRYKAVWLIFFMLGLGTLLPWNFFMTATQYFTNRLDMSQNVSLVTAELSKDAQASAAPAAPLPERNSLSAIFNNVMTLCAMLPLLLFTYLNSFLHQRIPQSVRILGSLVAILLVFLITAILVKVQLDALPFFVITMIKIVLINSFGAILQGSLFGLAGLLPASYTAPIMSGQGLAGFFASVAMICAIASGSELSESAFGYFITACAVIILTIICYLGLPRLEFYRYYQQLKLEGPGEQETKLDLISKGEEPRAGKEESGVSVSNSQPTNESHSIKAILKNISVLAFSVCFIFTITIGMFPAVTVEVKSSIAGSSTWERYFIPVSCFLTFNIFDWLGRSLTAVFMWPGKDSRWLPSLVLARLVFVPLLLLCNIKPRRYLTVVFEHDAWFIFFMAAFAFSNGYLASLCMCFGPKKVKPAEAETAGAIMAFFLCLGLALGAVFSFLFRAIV

[4] = target: Muscarinic acetylcholine receptor M3 (Homo sapiens, UniProt P20309)
[5] = target: T3, B2 bradykinin receptor (Homo sapiens, UniProt P30411)
T3 sequence (P30411 whole entry): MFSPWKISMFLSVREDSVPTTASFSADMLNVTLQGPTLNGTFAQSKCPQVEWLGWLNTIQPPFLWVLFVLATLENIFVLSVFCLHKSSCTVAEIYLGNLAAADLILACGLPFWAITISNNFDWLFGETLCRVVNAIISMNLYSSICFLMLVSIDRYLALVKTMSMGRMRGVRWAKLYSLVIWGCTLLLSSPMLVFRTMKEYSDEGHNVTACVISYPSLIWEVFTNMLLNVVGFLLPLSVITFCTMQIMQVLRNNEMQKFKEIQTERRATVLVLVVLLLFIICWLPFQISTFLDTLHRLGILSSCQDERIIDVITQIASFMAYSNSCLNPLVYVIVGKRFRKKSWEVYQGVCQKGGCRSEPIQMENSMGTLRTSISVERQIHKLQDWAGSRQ

[6] = target: T4, Adenosine receptor A3 (Homo sapiens, UniProt P0DMS8)
T4 sequence (P0DMS8 whole entry): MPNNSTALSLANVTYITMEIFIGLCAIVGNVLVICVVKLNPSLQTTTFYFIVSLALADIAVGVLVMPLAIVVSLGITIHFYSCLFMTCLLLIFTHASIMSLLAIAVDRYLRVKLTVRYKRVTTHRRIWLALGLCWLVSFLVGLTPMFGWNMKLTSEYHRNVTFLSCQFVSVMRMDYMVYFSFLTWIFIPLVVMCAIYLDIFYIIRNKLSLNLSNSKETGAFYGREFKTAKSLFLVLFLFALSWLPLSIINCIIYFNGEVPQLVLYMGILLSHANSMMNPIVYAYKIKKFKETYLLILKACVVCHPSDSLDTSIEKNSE

[7] = target: T5, Alpha-2A adrenergic receptor (Homo sapiens, UniProt P08913); format: functional, cell-based
T5 sequence (P08913 whole entry): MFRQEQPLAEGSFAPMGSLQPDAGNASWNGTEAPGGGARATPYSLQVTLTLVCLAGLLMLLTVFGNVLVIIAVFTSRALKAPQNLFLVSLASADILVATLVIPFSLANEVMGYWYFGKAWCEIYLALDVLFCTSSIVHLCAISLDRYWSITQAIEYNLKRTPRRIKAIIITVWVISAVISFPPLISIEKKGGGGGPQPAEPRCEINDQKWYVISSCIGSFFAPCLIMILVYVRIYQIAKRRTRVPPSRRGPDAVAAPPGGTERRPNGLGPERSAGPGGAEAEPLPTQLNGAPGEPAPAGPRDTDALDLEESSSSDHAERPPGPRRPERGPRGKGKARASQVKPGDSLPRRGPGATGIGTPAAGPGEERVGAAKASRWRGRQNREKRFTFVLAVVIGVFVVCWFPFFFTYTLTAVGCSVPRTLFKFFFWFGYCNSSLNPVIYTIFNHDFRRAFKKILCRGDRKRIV
Also: assay procedure not described here.

Chain of Muscarinic acetylcholine receptor M3 (P20309 whole entry): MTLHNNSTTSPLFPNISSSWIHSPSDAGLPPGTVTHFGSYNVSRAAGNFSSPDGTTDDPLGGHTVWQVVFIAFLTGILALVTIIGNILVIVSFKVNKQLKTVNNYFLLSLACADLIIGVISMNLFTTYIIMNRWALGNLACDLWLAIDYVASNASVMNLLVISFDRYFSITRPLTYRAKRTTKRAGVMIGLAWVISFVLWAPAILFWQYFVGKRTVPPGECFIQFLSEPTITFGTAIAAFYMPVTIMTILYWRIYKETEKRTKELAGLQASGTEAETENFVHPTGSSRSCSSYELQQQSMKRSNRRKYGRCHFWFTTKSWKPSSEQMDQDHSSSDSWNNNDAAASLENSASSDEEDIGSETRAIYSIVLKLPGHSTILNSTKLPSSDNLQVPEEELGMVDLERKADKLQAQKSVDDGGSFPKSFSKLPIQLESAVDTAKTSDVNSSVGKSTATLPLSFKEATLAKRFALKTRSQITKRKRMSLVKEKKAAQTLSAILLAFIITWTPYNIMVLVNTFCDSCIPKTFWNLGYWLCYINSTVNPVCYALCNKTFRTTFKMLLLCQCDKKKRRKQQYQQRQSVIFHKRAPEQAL
Chain of Sodium-dependent noradrenaline transporter (P23975 whole entry): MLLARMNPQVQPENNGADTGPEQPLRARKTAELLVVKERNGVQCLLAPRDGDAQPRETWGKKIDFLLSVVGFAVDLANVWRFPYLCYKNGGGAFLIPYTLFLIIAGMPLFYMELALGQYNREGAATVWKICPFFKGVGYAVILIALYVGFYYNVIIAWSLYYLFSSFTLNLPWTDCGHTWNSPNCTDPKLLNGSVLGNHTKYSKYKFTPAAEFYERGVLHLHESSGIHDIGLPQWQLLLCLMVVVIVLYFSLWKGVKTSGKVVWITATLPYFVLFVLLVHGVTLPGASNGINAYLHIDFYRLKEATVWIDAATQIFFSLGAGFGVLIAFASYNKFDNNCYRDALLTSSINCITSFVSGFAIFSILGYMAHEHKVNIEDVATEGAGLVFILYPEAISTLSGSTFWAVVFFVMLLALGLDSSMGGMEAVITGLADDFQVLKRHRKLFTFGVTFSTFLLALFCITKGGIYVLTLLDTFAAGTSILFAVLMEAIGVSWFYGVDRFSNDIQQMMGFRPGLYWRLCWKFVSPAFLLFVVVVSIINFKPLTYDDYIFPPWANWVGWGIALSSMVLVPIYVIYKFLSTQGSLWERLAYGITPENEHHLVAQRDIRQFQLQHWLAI

Row | SMILES | AC50 [1] | AC50 [2] | AC50 [3] | AC50 [4] | AC50 [5] | AC50 [6] | AC50 [7]
1 | OCc1cc(C(O)CNCCCCCCOCCCCc2ccccc2)ccc1O (stereo not given) [SALMETEROL] | > 30 µM | 4.3 µM | > 30 µM | > 30 µM | > 30 µM | > 30 µM | > 10 µM
2 | COc1cc2ncnc(Nc3ccc(F)c(Cl)c3)c2cc1NC(=O)/C=C/CN1CCCCC1 [DACOMITINIB ANHYDROUS] |  | 14 µM |  |  |  | 21 µM | 
3 | Cn1cnc2c(F)c(Nc3ccc(Br)cc3Cl)c(C(=O)NOCCO)cc21 [SELUMETINIB] |  | > 30 µM | > 30 µM |  |  | > 30 µM | 
4 | O=C1CN=C(c2ccccn2)c2cc(Br)ccc2N1 [BROMAZEPAM] | > 10 µM | > 10 µM | > 10 µM | > 30 µM | > 10 µM | > 10 µM | > 10 µM
5 | CC(=O)OCC(=O)[C@@]1(O)[C@H](C)C[C@H]2[C@@H]3CCC4=CC(=O)C=C[C@]4(C)[C@@]3(F)[C@@H](O)C[C@@]21C [DEXAMETHASONE ACETATE] |  | > 30 µM | > 30 µM | > 30 µM | > 30 µM | > 30 µM | > 10 µM
6 | C/C(=C\C(=O)OCCCCCCCCC(=O)O)C[C@@H]1OC[C@H](C[C@@H]2O[C@H]2[C@@H](C)[C@H](C)O)[C@@H](O)[C@H]1O [MUPIROCIN] | > 10 µM | > 30 µM | > 30 µM | > 30 µM | > 10 µM | > 10 µM | > 10 µM
7 | O=C1CN=C(c2ccccc2)c2cc([N+](=O)[O-])ccc2N1 [NITRAZEPAM] | > 10 µM | > 10 µM | > 10 µM |  | > 10 µM | > 10 µM | > 10 µM
8 | NC(=O)CN1CCCC1=O | > 30 µM | > 30 µM |  |  | > 30 µM | > 30 µM | > 30 µM
9 | O=C(O)c1ccccc1Nc1cc(Cl)ccc1C(=O)O [LOBENZARIT] | > 30 µM | > 30 µM | > 30 µM | > 30 µM | > 30 µM | > 30 µM | > 30 µM
10 | C[N@+]1(CCF)[C@@H]2CC[C@H]1C[C@@H](OC(=O)C(O)(c1ccccc1)c1ccccc1)C2 | > 30 µM | > 30 µM | > 30 µM | 0.0031 µM | > 30 µM | > 30 µM | > 30 µM
11 | CC(=O)[C@]1(O)Cc2c(O)c3c(c(O)c2[C@@H](O[C@H]2C[C@H](N)[C@H](O)[C@H](C)O2)C1)C(=O)c1ccccc1C3=O [IDARUBICIN] | 0.11 µM | 8.7 µM | > 30 µM |  | > 10 µM | 20 µM | 
12 | C=C[C@@]1(C)CC(=O)[C@]2(O)[C@@]3(C)[C@@H](O)CCC(C)(C)[C@@H]3[C@H](O)[C@H](OC(C)=O)[C@@]2(C)O1 [COLFORSIN] | > 30 µM | > 30 µM | > 30 µM | > 30 µM | > 30 µM | > 30 µM | 4.3 µM
13 | Cn1c(=O)cc(N2CCC[C@@H](N)C2)n(Cc2ccccc2C#N)c1=O [ALOGLIPTIN] | > 30 µM | > 10 µM | > 30 µM |  | > 30 µM | > 30 µM | 
14 | CCC(COC(=O)c1cc(OC)c(OC)c(OC)c1)(c1ccccc1)N(C)C (stereo not given) [TRIMEBUTINE] | > 30 µM | > 30 µM |  | > 30 µM | > 30 µM | 30 µM | > 30 µM
15 | CCCCCC(=O)O[C@]1(C(C)=O)CC[C@H]2[C@@H]3CCC4=CC(=O)CC[C@]4(C)[C@H]3CC[C@@]21C [HYDROXYPROGESTERONE CAPROATE] | 0.007 µM | > 30 µM | > 30 µM | > 30 µM | > 9.99 µM | 18.4 µM | > 30 µM
16 | NC1CCN(c2nc3c(cc2F)c(=O)c(C(=O)O)cn3-c2ccc(F)cc2F)C1 (stereo not given) [TOSUFLOXACIN] | > 30 µM | > 30 µM | > 30 µM |  | > 30 µM | > 30 µM | > 30 µM
17 | O=C(O)CCNC(=O)c1ccccc1 [BETAMIPRON] | > 30 µM | > 30 µM | > 30 µM |  | > 30 µM | > 30 µM | > 30 µM
18 | CCOC(=O)O[C@]1(C(=O)OCCl)CC[C@H]2[C@@H]3CCC4=CC(=O)C=C[C@]4(C)[C@H]3[C@@H](O)C[C@@]21C [LOTEPREDNOL ETABONATE] | 0.0056 µM | > 30 µM | > 30 µM | > 30 µM | > 30 µM | > 30 µM | > 30 µM
19 | CCN(CC)CCN1C(=O)CN=C(c2ccccc2F)c2cc(Cl)ccc21 [FLURAZEPAM] | > 30 µM | > 30 µM | > 30 µM | > 30 µM | > 30 µM | > 30 µM | > 10 µM
20 | CC(=O)SC[C@@H](C)C(=O)N1CCC[C@H]1C(=O)N[C@@H](Cc1ccccc1)C(=O)O |  | > 30 µM | > 30 µM | > 30 µM | > 30 µM | > 30 µM | > 30 µM
21 | CCN(CC)CCNC(=O)c1cc(S(C)(=O)=O)ccc1OC [TIAPRIDE] | > 30 µM | > 30 µM | > 30 µM |  | > 30 µM | > 30 µM | > 30 µM
22 | C#CCOc1ccc(N)cc1C(=O)NCCCC [PARSALMIDE] | > 30 µM | > 30 µM |  | > 30 µM | > 30 µM | > 30 µM | > 30 µM
23 | CN(C(=O)c1c(O)c2ccccc2n(C)c1=O)c1ccccc1 [ROQUINIMEX] |  | > 30 µM |  |  |  | > 30 µM | 
24 | Nc1cc(-c2ccncc2)c[nH]c1=O [INAMRINONE] | > 30 µM | > 30 µM | > 30 µM |  | > 30 µM | > 30 µM | > 10 µM
25 | CC(=O)[C@@]1(O)CC[C@H]2[C@@H]3C=C(Cl)C4=CC(=O)[C@@H]5C[C@@H]5[C@]4(C)[C@H]3CC[C@@]21C [CYPROTERONE] |  | > 10 µM | > 10 µM | > 30 µM | > 10 µM | > 10 µM | > 10 µM
